# From patent publication US20100260671A1, “COMPOUNDS AND METHODS FOR THE DIAGNOSIS AND TREATMENT OF AMYLOID ASSOCIATED DISEASES” (THE REGENTS OF THE UNIVERSITY OF CALIFORNIA, priority 2007, published 2010)
# Entries after “also recorded” stand apart in the source; their conditions may differ.
# Tests used:
# [1] = biological target: Aβ fibrils (binding of anti-Aβ IgG clone 6E10) (Homo sapiens, UniProt P05067); experiment: ELISA-based assay: inhibition of anti-Aβ IgG (clone 6E10) binding to Aβ fibrils; conditions: control experiments, FIG. 2 panel c
# [2] = biological target: T1, Aβ(1-40) ion channel activity (Homo sapiens, UniProt P05067); experiment: Planar lipid bilayer Aβ ion channel assay, Method 2 (POPE:DOPS, Aβ proteoliposomes); assay type: biochemical; conditions: for Small molecule concentration at which no ion channel activity is observed: Method 2, added after observing events
# T1 construct: Aβ(1-40) (Biopeptide, Inc.) powder was initially solubilized lyophilized in DiH2O at 1 mg/mL; purchased Biopeptide, Inc
# Method: Method 2: Planar lipid bilayer was formed by the so-called “painting technique” over a 250-μm aperture on a Delrin cup (Warner Instruments) separating two compartments (cis and trans) of a bilayer setup. A lipid mixture of 1-palmitoyl-2-oleoyl phosphatidyletanolamine (POPE) (Avanti Polar Lipids) and Dioleoylphosphatidylserine (DOPS) (Avanti Polar Lipids), 1:1 at 10 mg mL-1 in heptane was applied on the aperture which is pre-treated with 2 μL of the same lipid mixture in hexane on each side. Both compartments were filled symmetrically with 800 μL of 70 mM KCl, […]. A glass pipette with a smooth bent tip was used to blow air bubble under the aperture to thin out the droplet of lipid to obtain a planar lipid bilayer (with capacitance >80 pF). Membrane stability was determined by applying ±100 mV for 10 minutes and monitoring a constant current baseline without instabilities in current. The capacitance of the membrane was monitored throughout the experiment.
# Monomerization of Aβ: Aβ powder (Biopeptide, Inc.) was initially solubilized in Hexafluoroisopropanol (HFIP) at 1 mM for 21 hours in a glass vial, with 3 times of vortexing throughout the incubation period. The solution was diluted with cold nanopure water (2:1 H2O:HFIP) vortexed, fractionated in desire amounts, and immediately frozon in a CO2/acetone bath. Each fraction was covered with parafilm that was punctured twice to allow solvent vapors to escape. The fractions were lyophilized for 2 days to obtain monomerized Aβ.
# Preparation of Aβ proteoliposomes: Aβ(1-40) (Biopeptide, Inc.) powder was initially solubilized lyophilized in DiH2O at 1 mg/mL and stored in −80° C. before use. 20 μL of DOPS was evaporated in CHCl3 (10 mg mL^−1) under vacuum and formed liposomes using hydration method. After obtaining a thin film of lipid, 30 μL of 1M Potassium Aspartate pH 7.2 was added, followed by 5 minutes of bath sonication. The liposome suspension was then mixed with 20 μL of Aβ (1-40) solution (1 mg/mL) and sonicated for 5 minutes.
# In order to promote fusion of Aβ proteoliposomes into the bilayer, an ionic gradient of 370 mM KCl was used on the cis side (the side of proteoliposome addition) and 70 mM KCl on the trans side of the bilayer setup. 10-20 μL of the Aβ proteoliposome solution was added to the cis compartment and stirred vigorously for 5-10 minutes. The molecules of interest can be tested by addition to the chamber after observing events.
# [3] = physchem
# Method: (§1) 15 μM solutions of small molecule are prepared in 5 mL PBS buffer. 5 mL of octanol is added to each aqueous solution of small molecule and the biphasic layers are mixed by rapid vortexing. The mixture is then centrifuged at 250×g to facilitate the formation of two clear layers. The layers are separated and the absolute concentrations of small molecules in each layer are quantified by measuring the absorbance of the layers at the appropriate nm for each compound. The molar extinction coefficient of the compound in octanol and PBS buffer is determined by comparison to standard calibration curves of known quantities of small molecules dissolved in octanol and PBS buffer. The partition coefficient is expressed as logarithm of the ratio of the concentration in octanol divided by the concentration in PBS (i.e., log P).
# [4] = biological target: Aβ fibrils (anti-Aβ IgG) (Homo sapiens, UniProt P05067); conditions: for Emax: read-out: % Max Inhib.
# [5] = biological target: T2, Aβ(1-42) ion channel activity (Homo sapiens, UniProt P05067); experiment: Planar lipid bilayer Aβ ion channel assay, Method 1 (POPE:POPG, pre-incubated Aβ); assay type: biochemical; conditions: for membrane lasts: Method 1, incubated at 4:1 with Aβ, average of experiments
# T2 construct: Aβ(1-42) (Biopeptides) was initially dissolved in deionized water at 1 mg/ml (221.5 μM); purchased Biopeptide, Inc.
# Method: […] The Aβ sample was pre-incubated at RT for 12-18 hours. The molecules of interest can be pre-incubated with Aβ sample at various concentrations.
# Bilayer set-up and recording system: Planar lipid bilayer was formed by the so-called “painting technique” over a 250-μm aperture on a Delrin cup (Warner Instruments) separating two compartments (cis and trans) of a bilayer setup. A lipid mixture of 1-palmitoyl-2-oleoyl phosphatidyletanolamine (POPE): palmitoyl-oleyl-phosphatidylglycerol (POPG) (Avanti Polar Lipids), 1:1 at 25 mg mL-1 in heptane was applied to the aperture which is pre-treated with 2 μL of the same lipid mixture (20 mg mL^−1) in hexane on each side. The recording buffer in cis compartment is 100 mM K2HPO4/KH2PO4 pH 7.4, while in the trans compartment a buffer with pre-incubated Aβ overnight was used.
# [6] = biological target: T3, Aβ(1-42) ion channels (Homo sapiens, UniProt P05067); experiment: Functional ion channel inhibition assay, planar lipid bilayer (Example 7); assay type: biochemical; conditions: for Inhibition of de-novo Aβ ion channel formation: molar ratio to Aβ 1:1, added at the same time as 37 μM Aβ; for Rank of inhibitory effect on Aβ ion channel activity: repeated experiments
# T3 construct: Aβ(1-42) (Biopeptides) was initially dissolved in deionized water at 1 mg/ml (221.5 μM); purchased Biopeptide, Inc.
# Text: Functional Ion Channel Inhibition Assays: A functional assay has been developed to investigate the inhibition of neurotoxic ion channel activity of Aβ peptides in reconstituted membrane bilayers and in aneuronal cell line by small molecules. The assay is based on ultra-sensitive electrophysiological recordings of the ion channel activity of Aβ. This ion channel-activity assay is designed to determine whether small molecules that bind to Aβ fibrils will inhibit ion channel activity. Compounds that inhibit ion channel activity are likely candidates for therapeutics and diagnostic agents for amyloid-associated diseases. This Example presents results that nicotine, tannic acid, and Congo Red are able to inhibit the ion channel activity of Aβ oligomers in planar lipid bilayers.
# 1. The lipid mixture was made from POPE:POPG (Avanti Polar Lipids) at 25 mg/ml (1:1) in Heptane. The pretreatment lipid solution was POPE:POPG 20 mg/mL in Hexane.
# 2. The bilayer was formed in classic bilayer cups and chamber (Warner Instruments). This 2-part system consists of a black Delrin chamber and a cup of Delrin. Cups and chambers are designed such that addition of equal volumes to the cup and chamber (cis and trans sides) results in a balanced solution height, minimizing any pressure gradients across the bilayer membrane.
# 3. The bilayer was formed over a 250 μm hole in a partition separating two Delrin compartments, the so called “painting technique.” First, droplets of pretreatment lipid solution were placed on both sides of the hole, using 100 uL-Hamilton syringe. Once the droplet of hexane evaporates, both chambers (cis and trans) were symmetrically filled with 900 uL of buffer solution, 100 mM KH2PO4/K2HPO4 pH 7.4, at room temperature.
# 4. When the bilayer set-up was already in place with Ag/AgCl electrodes in Faraday cage (a bilayer workstation which provides critical shielding of electromagnetic interference from outside sources and isolate vibration), the lipid solution (POPE:POPG in Heptane) was painted directly over the hole by using a thin paintbrush. A researcher gently blew underneath the hole by using the Pasteur pipette to thin out the bilayer until the appropriate capacitance was obtained (80-120 pF).
# 5. A voltage of ±100 mV was applied for at least 10 minutes to test stability of lipid bilayer.
# Aβ(1-42) (Biopeptides) was initially dissolved in deionized water at 1 mg/ml (221.5 μM), and stored at −20° C. The stock solution is aliquotted to sufficient amount for each time use (90 uL). After the stable bilayer is constituted, the Aβ(1-42) solution was added to the trans side of the chamber to obtain a final concentration of 37 μM. The solution was mixed well in the chamber under stirring for 5 minutes
# Congo Red (Sigma) was dissolved in DI Water to achieve a concentration of 2.5 mg/ml (3.58 mM) as a stock solution. (−) Nicotine Hemasulfate (Sigma) was diluted to 1.89 mM in DI Water. Tannic Acid (Riedel-de Haen) was diluted to 20 mM in DI Water.
# The solution of inhibitory molecule was added to cis and trans sides to make a desired final concentration (1:1 molar ratio) at the same time as Aβ.
# For Nicotine, the solution was added after observing current activities of Aβ to obtain 1:1, 1:2, 1:3, 1:4 molar ratio.
# [7] = Octanol/PBS partition coefficient (log P), experimental; conditions: for logP: octanol/PBS buffer
# Method: as §1
# T1 sequence (P05067 672-711 limits assumed): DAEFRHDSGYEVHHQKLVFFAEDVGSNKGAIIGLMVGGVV
# T3 sequence (P05067 672-713 limits assumed): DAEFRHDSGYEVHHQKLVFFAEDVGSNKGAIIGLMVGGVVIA
# Aβ fibrils (anti-Aβ IgG), sequence (P05067 672-713 limits assumed): as above
# T2 sequence (P05067 672-713 limits assumed): as above
# Aβ fibrils (binding of anti-Aβ IgG clone 6E10), sequence (P05067 672-713 limits assumed): as above
structure (smiles),measurement,setting,value
O=S(=O)([O-])c1ccc(O)c2ccccc12.[Na+] [1-naphthol-4-sulfonate],Inhibition of the interaction between the IgGs and Aβ fibrils (control compound),[1],No inhibition
N[C@@H](Cc1ccc(O)c(O)c1)C(=O)O [L-DOPA],Membrane observation,"[2]; Method 2, 50 μM small molecule","molecule, membrane broke"
same,Small molecule concentration at which no ion channel activity is observed,[2],Observe no ion channel activity at 50 μM small
"CN1CCCC1c1cncc(Br)c1 (stereo not shown) [Compound 8, 5-Bromonicotine]",logP,[3],2.1 ± 0.3
same,Conc at Max Inhib.,[4]; anti-Aβ IgG-Aβ fibril binding,700 mM
same,Emax,[4],83%
O=C([O-])c1ccccc1O.[Na+] [Salicylic Acid sodium salt],Observe no ion channel activity in (experiments out of total),"[5]; Method 1, incubated at 4:1",Observe no ion channel activity in 3 out of 3
same,membrane lasts,[5],"(incubated at 4:1), membrane lasts ~45 minutes"
Cl.NCCc1ccc(O)c(O)c1 [Dopamine HCl],Observe no ion channel activity in (experiments out of total),"[5]; Method 1, incubated at 4:1",Observe no ion channel activity in 3 out of 4
same,membrane lasts,[5],"(incubated at 4:1), membrane lasts ~70 minutes"
CN1CCC[C@H]1COC(=O)c1cncc(Br)c1 [Compound 14],Conc at Max Inhib.,[4]; anti-Aβ IgG-Aβ fibril binding,50 mM
same,Emax,[4],68%
NC[C@H](O)c1ccc(O)c(O)c1.O.O=C(O)C(O)C(O)C(=O)O [L-(−)-norepinephrine (+)-bitartrate salt monohydrate],Small molecule concentration at which no ion channel activity is observed,[2],Observe no ion channel activity at 50 μM small
O=C(OC[C@H]1O[C@@H](OC(=O)c2cc(O)c(O)c(OC(=O)c3cc(O)c(O)c(O)c3)c2)[C@H](OC(=O)c2cc(O)c(O)c(OC(=O)c3cc(O)c(O)c(O)c3)c2)[C@@H](OC(=O)c2cc(O)c(O)c(OC(=O)c3cc(O)c(O)c(O)c3)c2)[C@@H]1OC(=O)c1cc(O)c(O)c(OC(=O)c2cc(O)c(O)c(O)c2)c1)c1cc(O)c(O)c(OC(=O)c2cc(O)c(O)c(O)c2)c1 [Tannic Acid],Inhibition of de-novo Aβ ion channel formation,[6],inhibited ion channel activity of Aβ
same,Observe no ion channel activity in (experiments out of total),"[5]; Method 1, incubated at 4:1",Observe no ion channel activity in 3 out of 5
same,membrane lasts,[5],"(incubated at 4:1), membrane lasts ~75 minutes"
"c1cncc(C2CCCN2)c1 (stereo not shown) [Compound 7, Nornicotine]",logP,[7],-0.93 ± 0.04
same,Conc at Max Inhib.,[4]; anti-Aβ IgG-Aβ fibril binding,700 mM
same,Emax,[4],98%
"CN1CCCC1c1cccnc1 (single isomer, unassigned; (-)) [(−)-Nicotine]",Time to almost complete disruption of preformed ion channels,[6]; 4-fold molar excess with respect to Aβ,≤ 10 min
same,Disruption of Aβ ion channel activity on addition at increasing concentration,"[6]; added after observing Aβ current, 1:1 to 1:4 molar ratio, 37 μM Aβ",concentration-dependent disruption of Aβ ion channel activity
same,Disruption of preformed Aβ ion channels,[6]; molar ratio nicotine to Aβ 4:1,disrupted preformed Aβ channels almost completely
same,Inhibition of de-novo Aβ ion channel formation,[6],sufficient to inhibit the de-novo formation of Aβ ion channels; also recorded: did not result in ion channel activity during the entire test period (90 min)
same,Rank of inhibitory effect on Aβ ion channel activity,[6],strongest inhibitory effect
same,membrane lasts / membrane stability,"[5]; Method 1, incubated at 2:1","(incubated at 2:1), unstable membrane"
same,Observe no ion channel activity in (experiments out of total),"[5]; Method 1, incubated at 4:1",Observe no ion channel activity in 4 out of 4
same,membrane lasts,[5],"(incubated at 4:1), membrane lasts ~70 minutes"
same,LogP expt'l,[7]; octanol/PBS,0.20 ± 0.01
same,% Max Inhib.,[4]; anti-Aβ IgG-Aβ fibril binding,84%
same,Conc at Max Inhib.,[4]; anti-Aβ IgG-Aβ fibril binding,"1,000 mM"
"CN1CCCC1COC(=O)c1ccccn1 (stereo not shown) [Compound 15, (s)-1-Methylpyrrolidine-2-methyl picolinate]",logP,[7],0.69 ± 0.08
same,Conc at Max Inhib.,[4]; anti-Aβ IgG-Aβ fibril binding,50 mM
same,Emax,[4],51%
Nc1c(/N=N/c2ccc(-c3ccc(/N=N/c4cc(S(=O)(=O)O)c5ccccc5c4N)cc3)cc2)cc(S(=O)(=O)O)c2ccccc12 [Congo Red],Rank of inhibitory effect on Aβ ion channel activity,[6],then by Congo Red
CNCCc1ccc(O)c(O)c1.Cl [N-methyl dopamine hydrochloride],Small molecule concentration at which no ion channel activity is observed,[2],Observe no ion channel activity at 450 μM small
"OCCOCCOCCOCCN1CCCC1c1cccnc1 (stereo not shown) [Compound 10, 2-(2-(2-(2-(2-(pyridin-3yl)pyrrolidin-1-yl)ethoxy)ethoxy)ethoxy)-ethanol]",logP,[7],-0.41 ± 0.05
same,Conc at Max Inhib.,[4]; anti-Aβ IgG-Aβ fibril binding,100 mM
same,Emax,[4],81%
COc1cc(/C=C/C(=O)CC(=O)/C=C/c2ccc(O)c(OC)c2)ccc1O [Curcumin],Observe no ion channel activity in (experiments out of total),"[5]; Method 1, incubated at 2:1",Observe no ion channel activity in 3 out of 6
same,membrane lasts / membrane stability,"[5]; Method 1, incubated at 2:1","(incubated at 2:1), membrane lasts ~50 minutes"
"CN1CCC[C@H]1COC(=O)c1cccnc1 [Compound 13, (s)-1-Methylpyrrolidine-2-methyl nicotinate]",logP,[7],-0.5 ± 0.02
same,Conc at Max Inhib.,[4]; anti-Aβ IgG-Aβ fibril binding,50 mM
same,Emax,[4],54%
